Reference: article PMC7395068, “The evolution of strategies to minimise the risk of human drug-induced liver injury (DILI) in drug discovery and development” (Archives of Toxicology, 2020)
Like-named read-outs stand apart in the source and are kept apart here. One block for each compound: values may come before it.

Key:
[1] = Plasma free fraction (fu) and unbound Cmax (Cmax,u); assay type: in vitro ADME, human; settings: unbound plasma Cmax
[2] = system: human hepatocytes; settings: cited from earlier work
[3] = system: PHH spheroids; settings: cited from earlier work; for hLiMTs ATP <20 x Cmax: In vitro Assay, ref Vorrink 2018
[4] = system: HepG2 C3A spheroid, BSEP, Glu/Gal in HepG2 cells, bioactivation; settings: cited from earlier work; for Bayesian Machine Learning DILI prediction, Williams (2019): Bayesian modeling, ref Williams et al. 2019; for Bayesian Machine Learning: In vitro Assay, ref Williams 2019
[5] = read-out: Human plasma Cmax; total plasma Cmax.tot, median of 9 literature references; cited from earlier work
[6] = plasma free fraction; cited from earlier work
[7] = system: THLE-Null and THLE-3A4 cells; settings: In vitro Assay; ref Gustafsson 2014; cited from earlier work
[8] = system: HepG2 cells, primary human hepatocytes; settings: In vitro Assay; ref Garside 2014; cited from earlier work
[9] = system: isolated mouse liver mitochondria; settings: In vitro Assay; ref Porceddu 2012; cited from earlier work
[10] = system: hLiMTs; assay: Combined HCI (HCS) and cellular ATP 3D assay in hLiMTs; settings: for AC50 / minimal effective concentration: Homo sapiens; for DILI prediction hLiMTs (HCS-MEC): Microtissue model structural based (HCI), combined HCS and ATP, MEC < 25 × Cmax.tot cut-off; for hLiMTs <25x Avg Cmax ATP / hLiMTs <100x Avg Cmaxu ATP: ATP endpoint; for hLiMTs <25x Avg Cmax ATP / hLiMTs <25x Avg Cmax HCS / hLiMTs <25x Avg Cmax All: cut-off <25x Avg Cmax; for hLiMTs <25x Avg Cmax HCS / hLiMTs <100x Avg Cmaxu HCS: HCS endpoints; for hLiMTs <25x Avg Cmax All: all endpoints (ATP and HCS); for hLiMTs Cmax max All / hLiMTs Cmax min All / hLiMTs <10 uM All / hLiMTs <100x Avg Cmaxu All: all endpoints; for hLiMTs Cmax max All: Cmax max used; for hLiMTs Cmax min All: Cmax min used; for hLiMTs <100x Avg Cmaxu ATP / hLiMTs <100x Avg Cmaxu HCS / hLiMTs <100x Avg Cmaxu All: cut-off <100x Avg Cmaxu; for hLiMTs <10 uM All: cut-off <10 uM
[11] = system: HepaRG spheroids; assay: Combined HCI (HCS) and cellular ATP 3D assay in HepaRG spheroids; settings: for HepaRG <25x Avg Cmax ATP / HepaRG <100x Avg Cmaxu ATP: ATP endpoint; for HepaRG <25x Avg Cmax ATP / HepaRG <25x Avg Cmax HCS / HepaRG <25x Avg Cmax All: cut-off <25x Avg Cmax; for HepaRG <25x Avg Cmax HCS / HepaRG <100x Avg Cmaxu HCS: HCS endpoints; for HepaRG <25x Avg Cmax All: all endpoints (ATP and HCS); for HepaRG Cmax max All / HepaRG Cmax min All / HepaRG <10 uM All / HepaRG <100x Avg Cmaxu All: all endpoints; for HepaRG Cmax max All: Cmax max used; for HepaRG Cmax min All: Cmax min used; for AC50 / minimal effective concentration: Homo sapiens; for HepaRG <25x Avg Cmax ATP / HepaRG <25x Avg Cmax HCS / HepaRG <25x Avg Cmax All / HepaRG Cmax max All / HepaRG Cmax min All / AC50 / minimal effective concentration / HepaRG <100x Avg Cmaxu ATP / HepaRG <100x Avg Cmaxu HCS / HepaRG <10 uM All / HepaRG <100x Avg Cmaxu All: HepaRG; for DILI prediction HepaRG spheroids (HCS-MEC): Microtissue model structural based (HCI), combined HCS and ATP, MEC < 25 × Cmax.tot cut-off; for HepaRG <100x Avg Cmaxu ATP / HepaRG <100x Avg Cmaxu HCS / HepaRG <100x Avg Cmaxu All: cut-off <100x Avg Cmaxu; for HepaRG <10 uM All: cut-off <10 uM
[12] = system: THLE or HepG2 cells, isolated mitochondria, BSEP; settings: cited from earlier work
[13] = system: rBsep; settings: In vitro Assay; ref Dawson 2012; cited from earlier work
[14] = system: HepG2 cells; settings: cited from earlier work
[15] = system: HepG2 cells; settings: cited from earlier work; remark: listed apart in the source
[16] = system: PHH; settings: cited from earlier work
[17] = system: hLiMTs; settings: cited from earlier work
[18] = cited from earlier work
[19] = Modeled in vitro assays (cytotoxicity, mitochondrial dysfunction, BSEP), ref Aleo et al. 2019
[20] = In vitro Assay, ref Persson 2013
[21] = In vitro Assay, ref Proctor 2017

Compound: COc1ccc2c(c1)c(CC(=O)O)c(C)n2C(=O)c1ccc(Cl)cc1 [indomethacin]
Human plasma Cmax,u [1]: 84 nM
Structural based (HCI) ([2]; In vitro Assay, ref Xu 2008): -VE
DILI in vitro assay prediction, Xu (2008) ([2]; Structural based (HCI), human hepatocytes, ref Xu et al. 2008): -VE
hLiMTs ATP <20 x Cmax [3]: +VE (IC20 < 20 × Cmax.tot cut-off)
Bayesian Machine Learning DILI prediction, Williams (2019) [4]: +VE
Bayesian Machine Learning [4]: +VE
Cmax [5]: 8380 nM
fu [6]: 0.010
THLE-Null [7]: -VE
Cluster 1-6 +VE Assay [8]: -VE
in vitro data EC2<=1x Cmax [9]: +VE
AC50 ([10]; read-out: ATP endpoint AC50): 9.29 µM
minimal effective concentration ([10]; read-out: ATP endpoint MEC): 4.54 µM
AC50 ([10]; read-out: HCS endpoint AC50): 672 µM
minimal effective concentration ([10]; read-out: HCS endpoint MEC): 95.2 µM
DILI prediction hLiMTs (HCS-MEC) [10]: +VE (MEC < 25 × Cmax.tot cut-off)
hLiMTs <25x Avg Cmax ATP [10]: +ve
hLiMTs <25x Avg Cmax HCS [10]: +ve
hLiMTs <25x Avg Cmax All [10]: +ve
hLiMTs Cmax max All [10]: +ve
hLiMTs Cmax min All [10]: +ve
HepaRG <25x Avg Cmax ATP [11]: +ve
HepaRG <25x Avg Cmax HCS [11]: +ve
HepaRG <25x Avg Cmax All [11]: +ve
HepaRG Cmax max All [11]: +ve
HepaRG Cmax min All [11]: +ve
AC50 ([11]; read-out: ATP endpoint AC50): 94.2 µM
minimal effective concentration ([11]; read-out: ATP endpoint MEC): 79.2 µM
AC50 ([11]; read-out: HCS endpoint AC50): 215 µM
minimal effective concentration ([11]; read-out: HCS endpoint MEC): 23.8 µM
DILI prediction HepaRG spheroids (HCS-MEC) [11]: +VE (MEC < 25 × Cmax.tot cut-off)

Human plasma Cmax,u [1]: 73 nM
hLiMTs <25x Avg Cmax ATP [10]: +ve
hLiMTs <100x Avg Cmaxu ATP [10]: -ve
hLiMTs <25x Avg Cmax HCS [10]: +ve
hLiMTs <100x Avg Cmaxu HCS [10]: +ve (<100x Avg Cmaxu)
hLiMTs <25x Avg Cmax All [10]: +ve
hLiMTs Cmax max All [10]: +ve
hLiMTs Cmax min All [10]: +ve
hLiMTs <10 uM All [10]: +ve (<10 uM)
hLiMTs <100x Avg Cmaxu All [10]: +ve (<100x Avg Cmaxu)
HepaRG <25x Avg Cmax ATP [11]: +ve
HepaRG <100x Avg Cmaxu ATP [11]: -ve
HepaRG <25x Avg Cmax HCS [11]: +ve
HepaRG <100x Avg Cmaxu HCS [11]: +ve (<100x Avg Cmaxu)
HepaRG <25x Avg Cmax All [11]: +ve
HepaRG Cmax max All [11]: +ve
HepaRG Cmax min All [11]: +ve
HepaRG <10 uM All [11]: +ve (<10 uM)
HepaRG <100x Avg Cmaxu All [11]: +ve (<100x Avg Cmaxu)
Compound: CN1CCN(C2=Nc3cc(Cl)ccc3Nc3ccccc32)CC1 [clozapine]
Partition Hybrid HRM Score ([12]; In vitro Assay, ref Aleo 2019): +VE
Ro2 Hybrid HRM Score ([12]; In vitro Assay, ref Aleo 2019): +VE
Partition Hybrid HRM Score ≥4, Aleo (2019) [12, 19]: +VE (Partition Hybrid HRM Score ≥4)
Partition Hybrid HRM Score ≥8, Aleo (2019) [12, 19]: -VE
Rule of Two hybrid HRM Score ≥3, Aleo (2019) [12, 19]: +VE (Rule of Two hybrid HRM Score ≥3)
Rule of Two hybrid HRM Score ≥8, Aleo (2019) [12, 19]: -VE
hLiMTs ATP <20 x Cmax [3]: +VE (IC20 < 20 × Cmax.tot cut-off)
Bayesian Machine Learning DILI prediction, Williams (2019) [4]: +VE
Bayesian Machine Learning [4]: +VE
Cmax [5]: 2450 nM
fu [6]: 0.030
THLE-Null [7]: -VE
Inhibition of rBsep cutoff<1& cmax u>.2 [13]: -VE
Inhibition of rBsep cutoff<3 [13]: +VE
AC50 ([10]; read-out: ATP endpoint AC50): 14 µM
minimal effective concentration ([10]; read-out: ATP endpoint MEC): 10.5 µM
AC50 ([10]; read-out: HCS endpoint AC50): 15.2 µM
minimal effective concentration ([10]; read-out: HCS endpoint MEC): 5.61 µM
DILI prediction hLiMTs (HCS-MEC) [10]: +VE (MEC < 25 × Cmax.tot cut-off)
AC50 ([11]; read-out: ATP endpoint AC50): 16.6 µM
minimal effective concentration ([11]; read-out: ATP endpoint MEC): 13.1 µM
AC50 ([11]; read-out: HCS endpoint AC50): 13.2 µM
minimal effective concentration ([11]; read-out: HCS endpoint MEC): 4.66 µM
DILI prediction HepaRG spheroids (HCS-MEC) [11]: +VE (MEC < 25 × Cmax.tot cut-off)

Human plasma Cmax,u [1]: 237 nM
hLiMTs <25x Avg Cmax ATP [10]: -ve
hLiMTs <100x Avg Cmaxu ATP [10]: -ve
hLiMTs <25x Avg Cmax HCS [10]: -ve
hLiMTs <100x Avg Cmaxu HCS [10]: -ve
hLiMTs <25x Avg Cmax All [10]: -ve
hLiMTs Cmax max All [10]: -ve
hLiMTs Cmax min All [10]: -ve
hLiMTs <10 uM All [10]: -ve
hLiMTs <100x Avg Cmaxu All [10]: -ve
HepaRG <25x Avg Cmax ATP [11]: -ve
HepaRG <100x Avg Cmaxu ATP [11]: -ve
HepaRG <25x Avg Cmax HCS [11]: -ve
HepaRG <100x Avg Cmaxu HCS [11]: -ve
HepaRG <25x Avg Cmax All [11]: -ve
HepaRG Cmax max All [11]: -ve
HepaRG Cmax min All [11]: -ve
HepaRG <10 uM All [11]: -ve
HepaRG <100x Avg Cmaxu All [11]: -ve
Compound: C#CCN(C)Cc1ccccc1 [pargyline]
Structural based (HCI) ([14]; In vitro Assay, ref O'Brien 2006): -VE
DILI in vitro assay prediction, O'Brien (2006) ([14]; Structural based (HCI), HepG2, ref O'Brien et al. 2006): -VE
Cluser analysis [15, 20]: -VE
Structural based (HCI) [15, 20]: -VE
DILI in vitro assay prediction, Persson (2013) ([15]; Structural based (HCI), HepG2, ref Persson et al. 2013): -VE
PHH/100xCmax, Proctor (2017) ([16]; 2D PHH, ATP, IC50 < 100 × Cmax.tot, ref Proctor et al. 2017): -VE
PHH/100uM, Proctor (2017) ([16]; 2D PHH, ATP, IC50 threshold 100 µM, ref Proctor et al. 2017): -VE
PHH ATP <100uM [16, 21]: -VE
hLiMTs ATP <100uM [17, 21]: -VE
hLiMTs/100xCmax, Proctor (2017) ([17]; hLiMTs, ATP, IC50 < 100 × Cmax.tot, ref Proctor et al. 2017): -VE
hLiMTs/100uM, Proctor (2017) ([17]; hLiMTs, ATP, IC50 threshold 100 µM, ref Proctor et al. 2017): -VE
hLiMTs ATP <20 x Cmax [3]: -VE
DILI in vitro assay prediction, Vorrink (2018) ([3]; PHH spheroids, ATP, 14 days, IC20 < 20 × Cmax.tot, ref Vorrink et al. 2018): -VE
Bayesian Machine Learning DILI prediction, Williams (2019) [4]: -VE
Bayesian Machine Learning [4]: -VE
Cmax [5]: 819 nM
fu [6]: 0.290
Assigned DILI category ([18]; Chen et al. 2016 or literature alignment, ref Chen et al. 2016): 1
In vivo DILI ([18]; ref Dawson 2012): -VE
In vivo DILI ([18]; ref Garside 2014): -VE
In vivo DILI ([18]; ref Gustafsson 2014): -VE
In vivo DILI ([18]; ref O'Brien 2006): -VE
In vivo DILI ([18]; ref Persson 2013): -VE
In vivo DILI ([18]; ref Porceddu 2012): -VE
In vivo DILI ([18]; ref Proctor 2017): -VE
In vivo DILI ([18]; ref Vorrink 2018): -VE
In vivo DILI ([18]; ref Williams 2019): -VE
THLE-Null [7]: -VE
THLE-Null/3A4 [7]: -VE
Cluster 1-6 +VE Assay [8]: +VE
in vitro data EC2<=1x Cmax [9]: -VE
in vitro data EC20<=2uM [9]: -VE
Inhibition of rBsep cutoff<1& cmax u>.2 [13]: -VE
Inhibition of rBsep cutoff<3 [13]: -VE
DILI prediction hLiMTs (HCS-MEC) [10]: -VE
DILI prediction HepaRG spheroids (HCS-MEC) [11]: -VE
